Structures are written as SMILES. Where a name gives a salt, the structure may show the parent alone.

For `Nc1cccc(-c2ccc(CCN3CCN(CCc4ccccc4)CC3)cc2OC2CCCC2)n1` (as salt: hydrochloride), the melting point was over 200 °C.
As for `CC(C)Oc1cc(C(O)CN2CCN(CCc3ccccc3)CC2)ccc1-c1cccc(N)n1` (centres unmarked) (as salt: hydrochloride), the melting point lay within 148 to 165 °C.

A word on the melting point: it is the temperature, or range, at which the solid turns liquid.

For the origin of these results see US6362195B1, “Branched alkoxy-substituted 2-aminopyridines as NOS inhibitors” (Pfizer Inc., priority 1997, dated 2002).
